We go through one compound from PMC3781034, “A Small-Animal Pharmacokinetic/Pharmacodynamic PET Study of Central Serotonin 1A Receptor Occupancy by a Potential Therapeutic Agent for Overactive Bladder” (PLoS ONE, 2013).

The test system of one series is micturition interval. The experiment in a line: 5-HT1A receptor agonist (8-OH-DPAT)-induced model of OAB, cystometry. The format is in vivo, female SD rats.
The target of a further series is T1, rat 5-HT1A receptor (Rattus norvegicus, UniProt P19327).
T1 construct: from tissue; host or cells: rat hippocampus, membrane (microsomal) fraction
T1 sequence (P19327 1-422): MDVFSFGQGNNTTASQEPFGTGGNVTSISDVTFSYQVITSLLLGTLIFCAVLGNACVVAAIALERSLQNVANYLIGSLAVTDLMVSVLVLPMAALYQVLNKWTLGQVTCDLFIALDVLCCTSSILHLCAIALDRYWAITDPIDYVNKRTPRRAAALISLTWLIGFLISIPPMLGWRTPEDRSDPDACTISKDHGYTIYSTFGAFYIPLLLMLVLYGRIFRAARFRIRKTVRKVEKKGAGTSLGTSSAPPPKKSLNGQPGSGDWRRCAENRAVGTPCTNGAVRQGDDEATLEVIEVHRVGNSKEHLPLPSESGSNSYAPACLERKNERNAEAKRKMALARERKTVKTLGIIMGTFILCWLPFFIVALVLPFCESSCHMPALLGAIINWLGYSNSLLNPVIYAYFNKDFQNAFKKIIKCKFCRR
The experiment in a line: Binding assay in rat hippocampal membrane fraction ([3H]MPPF). Particulars: rat hippocampal membranes, 0.3 nM [3H]MPPF, 25°C 60 min; read-out: Ki, 5-HT1A receptor affinity.

The target of series [1] is T2, 5-HT1A receptors (Rattus norvegicus, UniProt P19327).
T2 construct: occupancy of 5-HT1A receptors in living Sprague-Dawley rat brains; from tissue; host or cells: living Sprague-Dawley rat brain (medial prefrontal cortex, dorsal raphe nucleus), in vivo PET
T2 sequence (P19327 1-422): T1 sequence (P19327 1-422)
The experiment in a line: PET 5-HT1A receptor occupancy, time-course study (effect compartment model). It is filed as in vivo, Sprague-Dawley rat. Particulars: for EC50: time-course study. The procedure:
(§1) All PET scans for rats were performed with a small animal-dedicated microPET FOCUS 220 system (Siemens Medical Solutions USA, Knoxville, TN, USA), which yields a 25.8 cm (transaxial) × 7.6 cm (axial) field of view (FOV) and a spatial resolution of 1.3 mm full width at half maximum at the center of FOV [8]. The rats were anesthetized with 1.5-2% isoflurane in air (2 L/min flow rate). Their body temperature was controlled using homeothermic controller and plate with a rectal probe, and their heart rates and arterial oxygen saturations were continuously measured by a pulse oximeter (CANL-425SVA; Med Associates, St. Albans, VT, USA). We also monitored respiration rates of these animals with a custom-made monitoring system (Nagano Electronics, Hitachinaka, Japan). A 20-min transmission scan for attenuation correction was performed using a spiraling ^68Ge-^68Ga point source. Subsequently, list-mode scans were carried out for 90 min. All list-mode data were sorted and Fourier rebinned into two-dimensional sinograms (frames: 4 × 1, 8 × 2, and 14 × 5 min). Images were thereafter reconstructed using two-dimensional filtered back-projection with a 0.5-mm Hanning filter. [^11C]-WAY-100635 was injected via the tail vein as a single bolus at the start of emission scanning. The injected dose of the radiotracer was 85.3 ± 28.6 MBq/rat (mean ± SD).
(§2) Anatomical regions of interest (ROIs) were placed on the medial prefrontal cortex (MPFC) and dorsal raphe nucleus (DRN) using PMOD® image software (PMOD Group, Zurich, Switzerland) with reference to the MRI template. Radioligand binding was examined by calculating the binding potential (BP ND; ratio at equilibrium of specifically-bound radioligand to that of nondisplaceable radioligand in tissue) based on a simplified reference tissue model (SRTM) using the cerebellar time-radioactivity curve as reference.
(§3) Occupancy of 5-HT1A receptors by E2110 was calculated using the following equation:
(§4) RO(%)=BPND,baseline−BPND,drug/BPND,baseline×100 (2)
(§5) where BP ND, baseline and BP ND, drug are estimated BP ND at baseline and following drug administration, respectively.
(§6) To examine the dose-RO relationship at a single time point, four male SD rats, which had undergone a baseline PET imaging in advance, were scanned with PET at 4 hours after being pretreated with 4 oral doses (0.3, 1, 3, 10 mg/kg) of E2110. In this assay, approximately 250 µL of blood samples were collected from the tail vein upon initiation of the scan for quantification of plasma concentration of E2110. We further examined RO at different time points after the drug administration by conducting PET scans of four male SD rats at 2, 4, 6 or 8 hours after pretreatment with a single oral dose of 1 mg/kg E2110. In addition to this series of PET assays for male rats, pilot PET scans for female rats (n = 3) were carried out at baseline and 4 hours after oral administration of 0.1 mg/kg E2110 to examine whether relationships between plasma concentration of E2110 and RO by this drug in the brain are consistent between two genders. In all experiments, scans for the same individual receiving E2110 were conducted more than 1 week apart.
The effect compartment model is illustrated in Figure 2. The mean plasma concentration profile of E2110 in each of four rats was fitted by two-compartment model with first order absorption and elimination. A sigmoid Emax model (Equation 4) based on the concentration in the effect compartment was fitted to the PD (RO) data. PK and PD models were linked using an effect compartment model described by the following equation: […]
where Cp and Ce are concentrations of E2110 in the plasma and effect compartments, respectively, and ke0 represents the equilibration rate constant for the effect compartment. PK and PD parameters were estimated by using […] (Version 2.01, MicroMath Research, UT, USA).

In series [2] the target is T2, 5-HT1A receptors. Description: PET 5-HT1A receptor occupancy, dose-response study ([11C]WAY-100635, Emax model). It is filed as in vivo, Sprague-Dawley rat. As for the experimental part: as §1, §2, §3, §4, §5, §6
As described in previous studies on 5-HT1A receptor antagonists the relationship between RO and plasma drug concentration at equilibrium can be described according to the law of mass action by the curvilinear function, based on the assumption that the free brain concentration is equal to free plasma concentration and the free fraction in plasma is not concentration-dependent:
RO(%)=ROmax/Kdapp+CpCp (3)
where ROmax is the maximum occupancy that can be induced by E2110, Kd ^app the apparent equilibrium constant, and Cp the plasma concentration of E2110. This model is analogous to the Emax model:
where Emax (ROmax) is the maximum effect (maximum RO) and EC50 (= Kd) is the E2110 plasma concentration required to produce 50% of Emax. […]

Description for micturition interval: Catheter implantations and cystometric investigations were performed based on the reported method [14]. Briefly, on the day before the cystometric experiment, female SD rats were initially anesthetized with pentobarbital (50 mg/kg ip). Catheters were inserted into the femoral vein, the dome of the stomach and the dome of the bladder. In the cystometric study, the bladder catheter was connected to an infusion pump and a pressure transducer (DX-312; Nihon Kohden Co., Tokyo, Japan) by three-way stopcock. Saline was infused into the bladder and femoral vein. After bladder pressure was stabilized, 8-OH-DPAT (0.06 mg/kg/h) was infused into the femoral vein instead of saline. Bladder pressure was monitored with a pressure transducer and a pressure amplifier (AP-601G; Nihon Kohden), and recorded on a pen recorder (WT-645G; Nihon Kohden). The following three micturition intervals (i.e., intervals between consecutive peaks of bladder pressure induced at the time of bladder content evacuation) were obtained: (1) basal micturition interval (intervals before 8-OH-DPAT administration), (2) pre-administration micturition interval, (intervals immediately before administration of E2110 or vehicle), and (3) post-administration micturition interval (intervals observed between 1 and 2 hr after administration of E2110 or vehicle). […] E2110 (0.03, 0.1 or 0.3 mg/kg) or vehicle was administered to four groups of eight conscious rats orally.
Data are expressed as mean ± standard error of mean (S.E.M). In the pharmacological study, the statistical significance of differences between the vehicle- and E2110-treated groups was tested using one-way analysis of variance (ANOVA) followed by Dunnett’s multiple comparison test. A probability (p) value of <0.05 (two-sided) was considered statistically significant. All statistical analyses were performed using the SAS software package version 8.1 or 8.2 (SAS Institute Japan Ltd., Tokyo, Japan).
Description for rat 5-HT1A receptor: Rat hippocampal samples were weighed, homogenized in 10-fold volume of 50 mM Tris-HCl (pH 7.4) on an ice bath, and centrifuged (50,000×g, 4°C, 20 min). The precipitate was further homogenized in a 10-fold volume of 50 mM Tris-HCl (pH 7.4) on an ice bath and centrifuged (50,000×g, 4°C, 20 min). The obtained precipitate was homogenized in 50 mM Tris-HCl (pH 7.4) to render a concentration of 100 mg tissue eq./mL. The obtained microsomal fraction was stored as a receptor stock solution at -80°C until use. […] MPPF in a total 1-ml reaction volume at 25°C for 60 min. The reaction was terminated, and bound radioactivity was separated from free radioligands by filtering and washing three times with 3 ml of 50 mM Tris-HCl (pH 7.4). The radioactivity content of the filters in 5 ml of liquid scintillator (Atomlight; PerkinElmer) was counted by TR2500 scintillation counter (PerkinElmer Life & Analytical Sciences). The specific binding was determined as the difference between total and nonspecific binding, measured in the absence and presence of 100 µM 5-HT. Data were analyzed by Scatchard plot to estimate equilibrium constant (Kd) values. For the competition experiments, binding assays were carried out using 0.3 nM [^3H] […] MPPF according to the following equation:
Ki=IC50/1+[radioligand]/Kd (1)
where [radioligand] means the concentration of the radioligand used.

Regarding `CNC(=O)c1ccc2ccn(C3CCN(CCc4c(OC)ccc5c4OC(C)(C)CC5=O)CC3)c2c1.O=C(O)/C=C/C(=O)O` [E2110, 1-{1-[2-(7-Methoxy-2,2-dimethyl-4-oxochroman-8-yl)ethyl]piperidine-4-yl}-N-methyl-1H-indole-6-carboxamide fumarate], the “minimum dose exerting overt therapeutic effects on the micturition reflex” value in the series on micturition interval (8-OH-DPAT model, oral) was 0.1 mg/kg. Also, the “effect on micturition interval” value in the series on micturition interval (oral 0.1-0.3 mg/kg, 8-OH-DPAT-infused female SD rats, 1-2 hr after administration) was “significantly (p < 0.05) prolonged the micturition intervals”. In addition, the Ki at rat 5-HT1A receptor worked out at 0.045 nM. The EC50 is 7.38 nM at 5-HT1A receptors [1] (DRN, 1 mg/kg oral, male SD rats, effect compartment model, read-out: EC50 for occupancy of 5-HT1A receptors (converted)); 5.94 nM at 5-HT1A receptors [1] (DRN, effect compartment model, read-out: EC50 for occupancy of 5-HT1A receptors (converted)); 0.44 nM on 5-HT1A receptors [1] (DRN, read-out: EC50 for 5-HT1A RO, value in parentheses (free concentration-based)); 5.85 nM on 5-HT1A receptors [1] (MPFC, 1 mg/kg oral, male SD rats, effect compartment model, read-out: EC50 for occupancy of 5-HT1A receptors (converted)); 4.74 nM on 5-HT1A receptors [1] (MPFC, effect compartment model, read-out: EC50 for occupancy of 5-HT1A receptors (converted)); 0.35 nM on 5-HT1A receptors [1] (MPFC, read-out: EC50 for 5-HT1A RO, value in parentheses (free concentration-based)). Besides, the EC50 on 5-HT1A receptors [2] (DRN, dose-response study, 4 h after oral 0.3-10 mg/kg, male SD rats, Emax model, read-out: EC50 (plasma concentration required for 50% 5-HT1A RO) (converted)) was 5.4 nM; at 5-HT1A receptors [2] (DRN, dose-response study, Emax model, read-out: EC50 (plasma concentration required for 50% 5-HT1A RO) (converted)), 4.36 nM; on 5-HT1A receptors [2] (DRN, dose-response study, EC50 x unbound fraction in plasma, read-out: free concentration-based EC50 for 5-HT1A RO (converted)) it was 0.32 nM; on 5-HT1A receptors [2] (DRN, dose-response study, read-out: free concentration-based EC50 for 5-HT1A RO (converted)) it was 0.264 nM; on 5-HT1A receptors [2] (DRN, free CNS concentration assumed one-tenth of free plasma, read-out: in vivo EC50 corrected for the difference in free drug concentrations between plasma and CNS) it was 0.032 nM; on 5-HT1A receptors [2] (MPFC, dose-response study, 4 h after oral 0.3-10 mg/kg, male SD rats, Emax model, read-out: EC50 (plasma concentration required for 50% 5-HT1A RO) (converted)) it was 7.51 nM. Further, the EC50 at 5-HT1A receptors [2] (MPFC, dose-response study, Emax model, read-out: EC50 (plasma concentration required for 50% 5-HT1A RO) (converted)) is 6.08 nM; at 5-HT1A receptors [2] (MPFC, dose-response study, EC50 x unbound fraction in plasma, read-out: free concentration-based EC50 for 5-HT1A RO (converted)), 0.45 nM; at 5-HT1A receptors [2] (MPFC, dose-response study, read-out: free concentration-based EC50 for 5-HT1A RO (converted)), 0.363 nM; on 5-HT1A receptors [2] (MPFC, free CNS concentration assumed one-tenth of free plasma, read-out: in vivo EC50 corrected for the difference in free drug concentrations between plasma and CNS), 0.045 nM. For the same compound, on 5-HT1A receptors [1] (Sprague-Dawley, rat, effect compartment model, 1 mg/kg oral, male SD rats, read-out: CNS equilibration t1/2 (from ke0) (converted)), the half-life is 1.4 h. For the same compound, the “5-HT1A RO measured by PET versus simulated RO” value at 5-HT1A receptors [1] (female rats, 4 hours after oral 0.1 mg/kg, pilot study n = 3) is listed as “in good agreement with calculated data”. The “5-HT1A RO at high doses” value at 5-HT1A receptors [2] (3 and 10 mg/kg oral, 4 h, both ROIs (MPFC, DRN)) is “full occupancy”. Moreover, the “free concentration-based EC50 relative to in vitro Ki” value on 5-HT1A receptors [2] (MPFC and DRN, dose-response study) was “approximately 10 fold”. Further, the “5-HT1A RO, dose dependence” value at 5-HT1A receptors [2] (single oral doses of 0.3, 1, 3, and 10 mg/kg, each region) was “dose-dependently induced 5-HT1A RO”.

Broadly, the Ki is the dissociation constant of the complex between target and ligand, obtained from inhibition or displacement.
